# In PubChem BioAssay AID179 (DTP/NCI, 2004):
# The source made the active and inactive calls.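 How the source made its calls: active means compounds giving half or more protection of infected cells from virus-caused growth loss, again on retest; inactive means the rest.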 Where a SMILES comes first, the peptide text is derived from it.
# System: CEM cells HIV-1 protection, formazan growth assay
# Assay: NCI AIDS Antiviral Assay
# Conditions: for IC50: measured here: growth of uninfected CEM cells
# Outline: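 Soluble formazan readout of cell growth; CEM cells ± HIV-1; 5 drug concs. ≥50% protection → retest; ≥50% again = moderately active; reproducible 100% = confirmed active.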
SMILES,EC50,IC50,outcome
O=C(c1cc(Cl)ccc1Cl)N1CCN(c2ccc(Cl)c(Cl)c2)CC1,> 200 µM,25.1 µM,
O=C(Nc1ccc(Cl)cc1)c1ccccc1[Se][Se]c1ccccc1C(=O)Nc1ccc(Cl)cc1,2.95 µM,8.51 µM,
Oc1ccc(C(O)(c2ccccc2)c2ccccc2)cc1,> 67.6 µM,41.7 µM,
CC1=C2[C@@H](c3ccccc3)C3C=CC2(C=C3C(F)(F)F)N(C(=O)NC2CCCCC2)C1=O (some centres undefined),> 16.2 µM,> 16.2 µM,
NC1=Nc2ccccc2N(O)N1,> 158 µM,> 158 µM,
COC(=O)C12C3C4(C(=O)OC)C1C1(C(=O)OC)C2C3(C(=O)OC)C41C(=O)N(C(C)C)C(C)C (centres undefined),> 200 µM,> 200 µM,
Cc1oc(NC(=O)C(=O)O)c(C#N)c1C,> 200 µM,> 200 µM,
C/C(=N\N=C(N)N)C(CN1CCOCC1)C(c1ccccc1)c1c(O)c2ccccc2oc1=O (centres undefined),> 52.5 µM,> 52.5 µM,
O=C(CCc1cc(-c2ccccc2)nc(=S)[nH]1)Nc1ccccc1[N+](=O)[O-],> 661 µM,> 661 µM,
C[C@H]1C[C@H]2[C@@H]3CCC4=CC(=O)C=C[C@]4(C)[C@@]3(F)[C@@H](O)C[C@]2(C)C1=O,,,inactive
C=CC1=CC2(O[Si](C(C)C)(C(C)C)C(C)C)CCC1C(COCc1ccccc1)C2C(=O)O (centres undefined),> 28.8 µM,20 µM,
COc1ccc2c(c1)CCN1CCc3ccccc3CC21 (centres undefined),> 200 µM,53.7 µM,
CCCCOC/N=C(/N)NC#N,> 525 µM,> 525 µM,
Cc1cccc(C)c1NC(=O)C1C(=O)N(c2c(C)cccc2C)C(=O)/C1=N\N (centres undefined),,,inactive
COc1ccc(CC2c3c(cc(OC)c(OC)c3OC)CCN2C)cc1OC (centres undefined),> 589 µM,158 µM,
Cc1ccc2nc(C=Nc3ccccc3Cl)cc(C)c2c1,> 200 µM,10.5 µM,
COc1ccc(/C=C2\CN(C)C/C(=C\c3ccc(OC)cc3)C2=O)cc1,> 200 µM,85.1 µM,
C/C(O)=C(/C=NC(=S)C(N)=S)C(=O)Nc1ccccc1,> 200 µM,102 µM,
COC(=O)Cc1c(-c2c(CC(=O)OC)c3ccccc3n2C2OC(COC3OC(COC(C)=O)C(OC(C)=O)C(OC(C)=O)C3OC(C)=O)C(O)C(O)C2O)[nH]c2ccccc12 (centres undefined),105 µM,151 µM,
CC(C)CC(NC(=O)C(Cc1ccc(O)cc1)NC(=O)C(CO)NC(=O)C(CCC(=O)O)NC(=O)C1CCCN1C(=O)C(CC(C)C)NC(=O)C(C)NC(=O)CNC(=O)C(N)CCC(=O)O)C(=O)NCC(=O)O (centres undefined) (H-EGALPESYLG-OH; configuration not given here),,,inactive
CCOC(=O)c1c(N2CCCC2)ncn(-c2ccccc2)c1=S,> 200 µM,> 200 µM,
C/C(=N\NC(=S)Nc1ccc(S(N)(=O)=O)cc1)c1ccccn1,> 145 µM,8.51 µM,

SMILES,EC50,IC50,outcome
CCCCCCc1cc(S(=O)(=O)O)c(O)cc1O,> 200 µM,> 200 µM,
CCN(CC)c1ccc(N=Nc2ccc([N+](=O)[O-])cc2OC(=O)/C=C/c2ccccc2)c(OC(=O)/C=C/c2ccccc2)c1,> 4.57 µM,0.851 µM,
CC1=NN(C(=O)CC(=O)Nc2ccc(Cl)cc2)C(=O)C1N=Nc1ccc(C(=O)O)cc1 (centres undefined),> 200 µM,87.1 µM,
O=C(NCCCCN1CCCCCC1)C1c2ccccc2-c2ccccc21,> 200 µM,91.2 µM,
Cc1cc(-c2cscn2)c(O)c([N+](=O)[O-])c1,> 200 µM,35.5 µM,
O=C1OC(c2ccccc2)=N/C1=C\c1ccc(Oc2ccc(Cl)c(Cl)c2)cc1,> 2.51 µM,> 2.51 µM,
Cc1ccc(-c2c(C#N)c(-c3ccc(C)cc3)n(NS(=O)(=O)c3ccccc3)c(=O)c2C#N)cc1,> 200 µM,22.9 µM,
Cc1ccc(N=Nc2cc(C)c(N)c(N=Nc3ccc(N=Nc4cc(C(=O)O)c(O)c(S(=O)(=O)O)c4)c(C)c3)c2N)cc1,14.1 µM,> 100 µM,
COc1ccc(C(=O)Sc2ccccc2C(=O)Nc2ccc(S(=O)(=O)NC(C)=O)cc2)cc1,22.4 µM,> 100 µM,
O=C(NCCO)c1c(CO)n([O-])c2ccccc2[n+]1=O,> 646 µM,214 µM,
COC(=O)/C=C/COCC1C2CCC(=O)C21 (centres undefined),> 151 µM,> 151 µM,
Cc1cn(C2CC(COCc3ccccc3)N(CCO[Si](C)(C)C(C)(C)C)O2)c(=O)[nH]c1=O (centres undefined),> 200 µM,11.5 µM,
O=[N+]([O-])c1cc([As](=O)(O)O)ccc1O,> 200 µM,> 200 µM,
O=C(O)CC(NC(=O)C(F)(F)F)C(=O)NC1Cc2ccccc2OC1=O (centres undefined),> 200 µM,> 200 µM,
NNS(=O)(=O)c1ccc(/C=C2\NC(=O)NC2=O)cc1,> 200 µM,> 200 µM,
CCCc1cc(-c2ccc(-c3cc(CCC)c(C=O)[nH]3)s2)[nH]c1C=O,> 5.62 µM,1.62 µM,
CCN(CC)C(=S)SS(=O)(=O)c1ccc(NC(C)=O)cc1,> 200 µM,11 µM,
Clc1ccccc1CN1COc2c(ccc3ccccc23)C1,> 200 µM,28.8 µM,
N#Cc1nc(Nc2ccc(Cl)cc2)sc1N,> 525 µM,9.77 µM,
C[n+]1cc(C(O)c2ccc3c(c2)OCO3)c2ccccc2c1 (centres undefined),> 100 µM,29.5 µM,
COc1ccc2cc1Oc1ccc(cc1)CC1c3c(cc(OC)c4c3Oc3cc5c(cc3O4)CCN[C@@H]5C2)CCN1C (some centres undefined),,,inactive
O=c1[nH]c2ccccc2c(O)c1N=Nc1ccc(N=Nc2ccc(S(=O)(=O)O)cc2)cc1,> 200 µM,> 200 µM,

SMILES,EC50,IC50,outcome
O=C1C=Cc2c(Cl)sc(Cl)c21,> 200 µM,0.794 µM,
O=C(Nc1ccc(Oc2ccc(Cl)cc2)c(Cl)c1)c1cc(I)cc(I)c1O,> 200 µM,11.5 µM,
O=c1c2sc3nc(NCCN4CCCCC4)ncc3c2ncn1-c1ccccc1,> 200 µM,117 µM,
CCC[C@H]1[C@H](CCC)[C@@]2(OC(=O)C3=C2CCC=C3)[C@]12OC(=O)C1=C2CCC=C1,> 107 µM,20 µM,
O=C(O)c1cc(Cl)n[nH]c1=O,> 1410 µM,> 1410 µM,
CCN=C1NN=C(c2ccccc2)c2cc(Cl)ccc2N1,> 120 µM,21.9 µM,
CN=c1ss/c(=N\C(=S)N(C)C)n1-c1ccccc1,,,inactive
O=C1NN(C2=NNC3(C(=O)N2)c2ccccc2-c2ccccc23)C(c2ccccc2)=N/C1=C/c1ccc(O)cc1,> 100 µM,66.1 µM,
O=C(NCCCCCCCCNC(=O)c1cnc2ccccc2n1)c1cnc2ccccc2n1,> 398 µM,56.2 µM,
COc1c(Cc2cc(Cl)cc(S(=O)(=O)N(C)C)c2OC)cc(Cl)cc1S(=O)(=O)N(C)C,> 14.1 µM,> 14.1 µM,
C/C(=N/NC(=S)Nc1ccccc1Cl)c1ccccn1,> 0.2 µM,0.0372 µM,
COC1OC(CO)C(O)C2NCSC12 (centres undefined),33.9 µM,> 200 µM,
O=C1/C(=C/c2ccccc2)N=C2Sc3c(nc[nH]c3=O)N12,,,inactive
CCCCCCCCCCCCOC(=S)NCCCC,,,inactive
COc1ccc2c3c1C(=O)CCC3CO2 (centres undefined),,,inactive
Cc1ccc(S(=O)(=O)OCCn2cnc3nc(NC(=O)c4ccccc4)[nH]c(=O)c32)cc1,> 57.5 µM,> 57.5 µM,
COC(=O)C1C2CC3C1C3C2C(=O)OC (centres undefined),> 200 µM,> 200 µM,
CCCCCC=C(c1cc(Cl)c(OC)c(C(=O)NO)c1)c1cc(Cl)c(OC)c(C(=O)NO)c1,> 200 µM,1.95 µM,
CCCCCCCCCCCCCCCCCC(=O)OC[C@H](COP(=O)(O)OCCNC(=O)CCC(=O)NCCC=C(c1cc(Cl)c(OC)c(C(=O)OC)c1)c1cc(Cl)c(OC)c(C(=O)OC)c1)OC(=O)CCCCCCCCCCCCCCCCC,> 50.1 µM,> 50.1 µM,
Cn1c(COC(=O)Nc2ccccc2)c(COC(=O)Nc2ccccc2)c2ccc3cc(Cl)c(Cl)cc3c21,> 200 µM,0.468 µM,
Cc1ccccc1NC(=O)CSc1nnc(Cc2ccccc2)o1,> 263 µM,234 µM,
OCC1OC(c2cccc3cc(O)c(O)cc23)CC1O (centres undefined),> 200 µM,51.3 µM,

SMILES,EC50,IC50,outcome
O=c1c(F)cn(Cc2c(Cl)cccc2Cl)c(=O)n1Cc1c(Cl)cccc1Cl,> 200 µM,47.9 µM,
COc1ccc2cccc(C(=O)c3ccc(C)c4c3CCC4)c2c1,,,inactive
COc1cc2c(cc1OC)-c1c3cc(O)ccc3nn[n+]1CC2,,,inactive
O=C(C(c1ccccc1)c1ccccc1)N1CCN(c2ccccn2)CC1,> 89.1 µM,29.5 µM,
CC(=O)N1CC[N+](C)(CCCCN2c3ccccc3Sc3cc(N=[N+]=[N-])ccc32)CC1,> 200 µM,81.3 µM,
O=S(=O)(SCc1ccccc1)C(c1ccccc1)c1ccccc1,> 105 µM,6.31 µM,
CS(=O)(=O)c1ccc(N2CC2)nn1,> 200 µM,89.1 µM,
Cc1nn(-c2ccccc2)c2nc(N3CCOCC3)nnc12,,,inactive
OCC1OC2NC(=S)OC2C1O (centres undefined),> 200 µM,> 200 µM,
COc1ccc(C2c3cc(O)c(OC)cc3Oc3cc(OC)c(O)cc32)cc1,> 200 µM,8.51 µM,
CCC(CCl)NC(=O)Nc1ccc(S(=O)(=O)c2ccc([N+](=O)[O-])cc2)cc1 (centres undefined),> 11 µM,8.71 µM,
[N-]=[N+]=CC(=O)C1CCN(c2ccccc2)C1=O (centres undefined),> 200 µM,> 200 µM,
CC1(C)C=C(/C=N/Nc2ccc(Br)cc2)C(C#N)=C(O)C1(C#N)C#N,> 200 µM,28.8 µM,
O=NN/C(=C1\Nc2ccc([N+](=O)[O-])cc2NC1=O)C(O)c1ccc([N+](=O)[O-])cc1 (centres undefined),> 234 µM,191 µM,
O=c1c2ccccc2c2c1c1c3ccccc3c(=O)c1c1c3ccccc3c(=O)c21,> 200 µM,> 200 µM,
COc1ccccc1/C=C/c1nc2ccccc2o1,> 200 µM,107 µM,
CCOP(=O)(OCC)C(Nc1cccc([N+](=O)[O-])c1)c1ccccc1 (centres undefined),> 200 µM,174 µM,
CC1=C(C#N)C(C#N)(C#N)C(NN(C)C)C1 (centres undefined),> 200 µM,3.8 µM,
CCCC1C(=O)N2C(N(C)C)=Nc3ccc(C)cc3N2C1=O (centres undefined),> 832 µM,457 µM,
